Experimental data: paper PMC9382192, “Combined treatment with epigenetic agents enhances anti-tumor activity of MAGE-D4 peptide-specific T cells by upregulating the MAGE-D4 expression in glioma” (Frontiers in Oncology, 2022)

Key:
MAGE-D4 = MAGE-D4 expression (qRT-PCR, Western blot) in U87; assay type: cell-based, human; conditions: U87, compared to the control (0.09% DMSO); 1 μM TSA 24 h
Protocol: The human glioma cell lines (U87-MG and U251) were obtained from the Cell Bank of Type Culture Collection of the Chinese Academy of Science (Shanghai, China). […] A3656), valproic acid (VPA, CAS No. 99-66-1), and trichostatin A (TSA, CAS No. 58880-19-6) were purchased from Sigma-Aldrich Corporation (St. Louis, MO, USA). DAC and TSA were dissolved in DMSO to a concentration of 10 mM. Aliquots were stored at -80°C and diluted with media before being used. Drug treatments were divided into seven groups: (1) DAC group: cells were cultured in medium on the presence of 1 μM DAC for 120 h; (2) VPA group: cells were grown in medium containing 1 mM VPA for 120 h; (3) TSA group: cells were cultured in medium supplemented with 1 μM TSA for 24 h; (4) D + V group: cells were cultured with 1 μM DAC and 1 mM VPA for 120 h; (5) D + T group: cells were cultured with 1 μM DAC for 120 h, followed by 1 μM TSA for 24 h; (6) Control group: cells were cultured with 0.09% DMSO, which is the highest concentration of DMSO used in this study in consideration of the potential toxicity of DMSO to living cells. […] Relative intensities of the bands were normalized with GAPDH and analyzed by ImageJ (NIH, Maryland, USA).

U251 = assay: Granzyme A and perforin ELISA, T cells with U251; assay type: cell-based, human; conditions: T cells incubated with DAC + TSA-treated U251, E:T 50:1, 4 h
Protocol: The human glioma cell lines (U87-MG and U251) were obtained from the Cell Bank of Type Culture Collection of the Chinese Academy of Science (Shanghai, China). […] A3656), valproic acid (VPA, CAS No. 99-66-1), and trichostatin A (TSA, CAS No. 58880-19-6) were purchased from Sigma-Aldrich Corporation (St. Louis, MO, USA). DAC and TSA were dissolved in DMSO to a concentration of 10 mM. Aliquots were stored at −80°C and diluted with media before being used. […] Four hours later, suspended cells were collected for CD107a flow cytometry, meanwhile, the supernatant was collected and analyzed with granzyme A and perforin ELISA kit (Cloud-Clone Corporation, Wuhan, China) at 450 nm, and the LDH kit (Promega, USA) at 490 nm. The percentage of specific lysis was calculated using the following formula: [(experimental release − spontaneous release)/(maximum release − spontaneous release)] × 100. […] Then, the cytotoxicity assay was measured and calculated as mentioned above.

Molecule: CC(/C=C/C(=O)NO)=C\[C@@H](C)C(=O)c1ccc(N(C)C)cc1 [TSA, trichostatin A]
- MAGE-D4 mRNA and protein expression (MAGE-D4): higher

Molecule: CLPPPNVIL [Peptide P8]
- granzyme A and perforin secreted by T cells (U251): the most granzyme A and perforin
